Drawing on US20060148848A1, “Compounds and methods for treating cancer and inflammation” (QLT, Inc., priority 2002, published 2006), this text covers IC50, inhibition and in vitro cytotoxicity for one compound.

One data set deals with T1, SGK2α (Homo sapiens, UniProt Q9HBY8).
T1 construct: made in house; host or cells: baculovirus; Sf9 (virus generation) and High Five insect cells (expression)
T1 sequence (Q9HBY8 1-367): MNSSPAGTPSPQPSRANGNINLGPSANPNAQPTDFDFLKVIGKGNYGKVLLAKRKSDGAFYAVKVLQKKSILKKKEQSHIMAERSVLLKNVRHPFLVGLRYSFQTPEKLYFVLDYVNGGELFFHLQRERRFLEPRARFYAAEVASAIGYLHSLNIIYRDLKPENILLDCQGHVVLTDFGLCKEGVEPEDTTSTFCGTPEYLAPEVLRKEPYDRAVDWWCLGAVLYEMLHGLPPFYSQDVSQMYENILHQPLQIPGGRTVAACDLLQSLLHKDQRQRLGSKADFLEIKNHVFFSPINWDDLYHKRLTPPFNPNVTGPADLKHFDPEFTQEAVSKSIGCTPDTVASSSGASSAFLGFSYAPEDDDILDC
As to the kind of experiment: SGK2α in vitro kinase assay. The class given is biochemical. The settings on record: recombinant human GST-SGK2α, [γ-32P]-ATP, 15 minutes at ambient temperature. From the text: SGK2α cDNA was cloned from human brain cDNA library by the polymerase chain reaction (PCR) technique and subsequently inserted directly into pPCR-2.1 T/A cloning vector (Strategene). After DNA sequencing, the confirmed wild-type human SGK2α cDNA was subcloned into baculovirus expression vector pAcG2T (BD PharMingen) for recombinant protein expression in insect cells. Expression of human SGK2α as a fusion protein required that the cDNA be ligated into the polyclonal site situated in frame and downstream of the glutathione-S-transferase gene of the baculovirus transfer vector pAcG2T. The 1104 base pair SGK2α coding sequence was excised from the pPCR-2.1 T/A vector using the Bam HI and Eco RI restriction sites generated the 5′ and 3′ of the coding sequence respectively by PCR amplification. This DNA fragment was directionally subcloned in-frame into the Bam HI and Eco RI polyclonal sites of the pAcG2T vector. Positive recombinant clones of SGK2α in the pAcG2T vector were determined by restriction enzyme analysis with Bam HI and Eco RI restriction enzymes.
Active SGK2α enzyme was expressed using the baculovirus expression vector system in a two-step process. […] A complete quantitative and qualitative analysis of the protein was monitored using Coomassie blue staining and Western blot analysis using anti-GST specific antibody (Kinetek). […]

The subject of the next data set is H460 cells. In words: Cell proliferation (3H-thymidine incorporation), H460. The format is cell-based. The settings on record: Homo sapiens, NCI-H460, 24 hours, read-out: in vitro inhibition of cell proliferation. An excerpt: (§1) This procedure (Jelinkova, R. B. et al., “Antiproliferative effect of a lectin- and anti-Thy-1.2 antibody-targeted HPMA copolymer-bound doxorubicin on primary and metastatic human colourectal carcinoma and on human colourectal carcinoma transfected with the mouse Thy-1.2 gene”, Bioconjug. Chem. (2000), Vol. 11, No. 5, pp. 664-73) is used to assess the effect compounds have on various cell lines with respect to proliferation. The rate of anchorage-independent growth of various tumour cells is quantified by measuring the amount of free isotopic thymidine that has been incorporated into the cells over a period of time. The effect of any compound to inhibit the proliferation of various tumour cells could be used as an indication of its ability to prevent disease progression in cancer.
(§2) Cultured tumour cells are harvested cells as per normal procedures: i.e. trypsinize, centrifuge and count cells. […]
(§3) After incubation, plates are observed under the microscope for obvious cell death, abnormal cell shape, crystal formation of the compound, etc. […] Finally, 100 μL of scintillation fluid is added to each well and the plates are counted in a Wallac™ 1450 Microbeta™ counter according to user manual instructions.
(§4) The amount of inhibition is determined by the following formula: % inhibition=100−[(AVG treatment−AVG positive control)/[…]]
For orientation: Dividing cells build labelled thymidine or BrdU into new DNA.

Data set [1] concerns HUVEC cells. As to the kind of experiment: Cell proliferation (3H-thymidine incorporation), HUVEC. The format is cell-based. Conditions: Homo sapiens, 24 hours, read-out: in vitro inhibition of cell proliferation.
Description: as §1, §2, §3, §4

The subject of a further data set is PC3 cells. As to the kind of experiment: Cell proliferation (3H-thymidine incorporation), PC3. Conditions: Homo sapiens, PC-3, 24 hours, read-out: in vitro inhibition of cell proliferation. The class given is cell-based.
Description: as §1, §2, §3, §4

Another data set has as its system HS27 cells. As to the kind of experiment: Cytotoxicity assay (calcein AM cell viability), HS27. The format is cell-based. The settings on record: 50 μM, approximately 24 hours. An excerpt: (§5) This procedure is used to assess the effects compounds have on various cell lines with respect to cell viability. Cell viability is quantified using calcein AM and measuring its conversion to a fluorescent product (calcein) with a fluorimeter.
(§6) The principle of this assay is based on the presence of ubiquitous intracellular esterase activity found in live cells. By enzymatic reaction of esterase, non-fluorescent cell-permeant calcein AM is converted to the intensely fluorescent calcein. The polyanionic dye calcein is retained within live cells, producing a green fluorescence in live cells. […]
(§7) Cells were collected from tissue culture flasks and trypsinized, centrifuged, resuspended and counted. […]
(§8) The calcein AM solution is prepared by added 50 μg of calcein AM crystal (m.w.=994.87 g/mol, Molecular Probes, Eugene, Oreg.) and nnhydrous DMSO (Sigma Aldrich) to make 1 mM stock and diluting stock to 2× the final desired concentration in 1×DPBS just before the assay. […] Fluorescence data was read and recorded (Fluoroskan Ascent® FL fluorimeter (excitation˜485 nm, emission˜527 nm)).
(§9) The values for replicates (usually six) are averaged and % inhibition is calculated as follows: % inhibition=100−[(AVG treatment−AVG positive control)/(AVG negative control−AVG positive control)*100]

The test system of data set [2] is HUVEC cells. As to the kind of experiment: Cytotoxicity assay (calcein AM cell viability), HUVEC. The class given is cell-based. The settings on record: 50 μM, approximately 24 hours.
Description: as §5, §6, §7, §8, §9

The next data set concerns LL-86 cells. In words: Cytotoxicity assay (calcein AM cell viability), LL-86. The format is cell-based. The settings on record: 50 μM, approximately 24 hours.
Description: as §5, §6, §7, §8, §9

What is called IC50 is the midpoint of a concentration-inhibition curve. For `CCc1c2cc(OC)c(OC)cc2cc(=O)n1Cc1ccccc1` [2-Benzyl-1-ethyl-6,7-dimethoxy-2H-isoquinolin-3-one], on SGK2α, the IC50 stood at 970 nM. Besides, the values for the inhibition at 50 µM in the data set with H460 cells, with HUVEC cells [1] and in the data set with PC3 cells were 27%, 42% and 67%, respectively. Further, the in vitro cytotoxicity with HS27 cells is 0%; with HUVEC cells [2], 4%; with LL-86 cells, 0%.
